Reference: US8063008B2, “Enzymatic production of peracids using perhydrolytic enzymes” (E. I. du Pont de Nemours and Company, priority 2005, dated 2011)
“And” between values parts separate entries of the source, which are not always exact repeats. Equal values may be shown once. Read-outs that look alike come from different tables or passages of the source.

Experiments:
[1] = Enzymatic perhydrolysis of propyl acetate at pH 6.5 (Example 11, comparative); format: biochemical; details: pH 6.5, 2 mg enzyme
Procedure: Into a 4-mL glass vial with stir bar was added 2 mg of one of the following enzymes: acetylcholinesterase (Sigma, C-2888), Lipase G “Amano” 50 (Amano), or Chirazyme L2, lyo. (C. antartica lipase B, BioCatalytics) dissolved in 0.050 mL of 50 mM potassium phosphate buffer (pH 6.5). To the vial was then added either a) 0.930 mL of a solution containing 50 mM potassium phosphate buffer (pH 6.5) and 215 mM propyl acetate, followed by 0.021 mL 30% hydrogen peroxide (200 mM final hydrogen peroxide concentration) or b) 0.900 mL of a solution containing 278 mM triacetin in 50 mM potassium phosphate buffer (pH 6.5), 0.024 mL of 50 mM potassium phosphate buffer (pH 6.5), and 0.026 mL 30% hydrogen peroxide (250 mM final concentration). […] A portion of the resulting filtrate was diluted 1:10 with dd water and analyzed for hydrogen peroxide, and the remaining portion of the filtrate was directly analyzed for peracid using the HPLC assay method (Table 12).

[2] = Enzymatic perhydrolysis of a mixture of diacetin (250 mM), triacetin (88 mM) and monoacetin (192 mM) using lipase and Neutrase at pH 4.0 and 6.5 (Example 25); format: biochemical; details: monoacetin 192 mM, H2O2 500 mM, 22° C.
Procedure: Reaction mixtures were prepared containing 1 mg lipase (A “Amano” 12 (Amano), Validase AN (Valley Research), or ICR-110 (BioCatalytics)), and 20 μL Neutrase® (Novozymes) in 1.0 mL of 50 mM buffer (either sodium acetate/acetic acid buffer at pH 4.0, or potassium phosphate buffer at pH 6.5), additionally containing a mixture of diacetin (250 mM), triacetin (88 mM) and monoacetin (192 mM) and hydrogen peroxide (500 mM). After stirring for 5 or 30 minutes at 22° C., a 0.250-mL sample was filtered using a 30,000 NMWL filter (Millipore UltraFree-MC) centrifuged for 2 minutes at 12,000 RPM. A portion of the filtered reaction samples was diluted 1:10 with dd water and analyzed for hydrogen peroxide, and the remaining portion of the sample was directly analyzed for peracid using the HPLC assay method (Table 30). Reactions were also run with lipase alone or Neutrase® alone for comparison of peracetic acid concentrations produced without the combination of lipase and Neutrase®.

[3] = Enzymatic perhydrolysis of triacetin using a combination of lipase and Neutrase at pH 4.0 and 6.5 (Example 24); format: biochemical; details: triacetin 250 mM, H2O2 500 mM, 22° C.
Procedure: Reaction mixtures were prepared containing 1 mg lipase (A “Amano” 12 (Amano), Validase AN (Valley Research), or ICR-110 (BioCatalytics)), and 20 μL Neutrase® (Novozymes) in 1.0 mL of 50 mM buffer (either sodium acetate/acetic acid buffer at pH 4.0, or potassium phosphate buffer at pH 6.5), additionally containing triacetin (250 mM) and hydrogen peroxide (500 mM). […] A portion of the filtered reaction samples was diluted 1:10 with dd water and analyzed for hydrogen peroxide, and the remaining portion of the sample was directly analyzed for peracid using the HPLC assay method (Table 29). Reactions were also run with lipase alone or Neutrase® alone for comparison of peracetic acid concentrations produced without the combination of lipase and Neutrase®.

E. coli ATCC 11229 = assay: Determination of Minimum Biocidal Concentration (MBC), XTT reduction inhibition (Example 21); format: cell-based; details: for replicate OD (450 nm): replicates 1-8
From the text: The method described by J. Gabrielson, et al. (J. Microbiol. Methods 50: 63-73 (2002)) was employed for determination of the Minimum Biocidal Concentration (MBC) of peracids, or for determination of the MBC of hydrogen peroxide and enzyme substrates. The assay method is based on XTT reduction inhibition, where XTT ((2,3-bis[2-methoxy-4-nitro-5-sulfophenyl]-5-[(phenylamino)carbonyl]-2H-tetrazolium, inner salt, monosodium salt) is a redox dye that indicates microbial respiratory activity by a change in optical density (OD) measured at 490 nm or 450 nm. However, there are a variety of other methods available for testing the activity of disinfectants and antiseptics including, but not limited to viable plate counts, direct microscopic counts, dry weight, turbidity measurements, absorbance, and bioluminescence (see, for example Brock, Semour S., Disinfection, Sterilization, and Preservation, 5th edition, Lippincott Williams & Wilkins, Philadelphia, Pa., USA; 2001).
The filtered enzyme-generated product mixture was diluted 1:5 with sterile water, and the resulting solution was further diluted with sterile water in four 1:1 serial dilutions to obtain the concentrations of PAA and hydrogen peroxide listed in Table 22.
The 1:5 dilution and four serial dilutions were evaluated for biocidal activity by mixing 0.100 mL of the PAA-containing solution with 0.100 mL of an inoculum containing 2.7×10^6 CFU/mL of E. coli ATCC 11229 (American Type Culture Collection, Manassas, Va.) in Millers LB broth diluted with Butterfield Buffer; eight replicates of each mixture were contained in individual wells of a sterile 96-well microtiter plate. After the resulting cell suspensions were allowed to stand for 10 minutes at room temperature, they were tested for viability using the growth indicator XTT (2,3-bis[2-methoxy-4-nitro-5-sulfophenyl]-5-[(phenylamino)carbonyl]-2H-tetrazolium, inner salt, monosodium salt; CAS RN 111072-31-2) according to the method of Gabrielson et al. (J. Microbiol. Methods, 50:63-73 (2002)).
Separately, the cell inoculum was treated with sterile solutions of triacetin (Table 24) or hydrogen peroxide in 50 mM phosphate buffer (pH 6.5) (Table 25) at the concentrations present in each of the biocide dilutions in Table 23 to determine the MBC for these components of the biocide solution.

[4] = molecular target: protease subtilisin from Bacillus amyloliquefaciens (Bacillus amyloliquefaciens, UniProt P00782); details: cited from earlier work
Sequence of protease subtilisin from Bacillus amyloliquefaciens (P00782 108-382): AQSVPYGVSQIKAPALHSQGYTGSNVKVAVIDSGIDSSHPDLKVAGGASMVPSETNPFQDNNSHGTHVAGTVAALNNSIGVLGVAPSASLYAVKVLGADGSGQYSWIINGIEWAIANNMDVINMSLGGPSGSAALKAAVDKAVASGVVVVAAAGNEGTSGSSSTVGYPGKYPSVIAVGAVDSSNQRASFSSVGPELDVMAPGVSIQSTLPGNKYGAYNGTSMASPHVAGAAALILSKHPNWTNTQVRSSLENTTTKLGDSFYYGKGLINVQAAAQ

[5] = Protease-catalyzed perhydrolysis of acetamide at pH 6.5 (Example 9); format: biochemical; details: pH 6.5, 500 mM H2O2, 1 mg protease
Procedure: (§1) Into a 4-mL glass vial with stir bar was added 1 mg protease (Table 6) in 0.050 mL of 50 mM potassium phosphate buffer (pH 6.5), 0.900 mL of an aqueous mixture containing either a) acetamide (278 mM) in 50 mM potassium phosphate buffer (pH 6.5) or b) diacetamide (278 mM) in 50 mM potassium phosphate buffer (pH 6.5), and 0.052 mL 30% hydrogen peroxide (500 mM final concentration). […] A portion of the filtered reaction samples was diluted 1:10 with dd water and analyzed for hydrogen peroxide, and the remaining portion of the sample was directly analyzed for peracid using the HPLC assay method (Table 10).

[6] = Protease-catalyzed perhydrolysis of diacetamide at pH 4.0 (Example 6); format: biochemical; details: pH 4.0, 500 mM H2O2, 1 mg protease
Procedure: as §1, with “sodium acetate/acetic acid” for “potassium phosphate”, “4.0),” for “6.5),”, “4.0)” for “6.5)”, “7).” for “10).”

[7] = Protease-catalyzed perhydrolysis of diacetamide at pH 6.5 (Example 9); format: biochemical; details: pH 6.5, 500 mM H2O2, 1 mg protease
Procedure: as §1

[8] = Protease-catalyzed perhydrolysis of triacetin at pH 4.0 (Example 7); format: biochemical; details: pH 4.0, 500 mM H2O2, 1 mg protease
Procedure: as §1, with “sodium acetate/acetic acid” for “potassium phosphate”, “4.0),” for “6.5),”, “triacetin” for “either a) acetamide”, “4.0),” for “6.5) or b) diacetamide (278 mM) in 50 mM potassium phosphate buffer (pH 6.5),”, “8).” for “10).”

[9] = Protease-catalyzed perhydrolysis of triacetin at pH 6.5 (Example 8); format: biochemical; details: pH 6.5, 500 mM H2O2, 1 mg protease
Procedure: The analytical procedure described by U. Karst et al. (Anal. Chem., 69 (17):3623-3627 (1997)) was employed, as described herein, for analysis of product mixtures containing peracid and hydrogen peroxide. Briefly, the concentration of peracetic acid (PAA) in analyzed samples ranged from 0.025 mM-10 mM, and the concentration of H2O2 ranged from 0.075 mM-3 mM. Reaction mixtures containing peracid and/or hydrogen peroxide were, if necessary prior to analysis, diluted to produce a concentration of peracid or peroxide in these ranges. Into a 4-mL vial was placed 0.100 mL of 20 mM methyl p-tolyl sulfide (MTS) in acetonitrile, 0.300 mL of distilled and deionized water (dd) and 0.100 mL of sample solution (undiluted or diluted with dd water by a factor of up to 1:25 for analysis of peracid), or 0.100 mL of 20 mM MTS in acetonitrile and 0.390 mL of dd water were added to 0.010 mL of a 1:10 dilution of sample solution (for analysis of hydrogen peroxide). After a reaction time of 10 minutes (in the dark, with no stirring), 0.400 mL CH3CN and 0.100 mL of 40-mM triphenylphosphine (TPP) in CH3CN were added to start the second derivatization reaction for detection of peroxide. The solution was left standing in the dark for 30 min to complete the assay reaction. At the end of 30 minutes, 0.100 mL of 10 mM N,N-diethyl-m-toluamide (DEET, HPLC external standard) was added and the resulting solution analyzed by HPLC: Supelco Discovery C8 10-cm column with pre-column, 10-μL injection, UV detection at 225 nm, solvent A: acetonitrile, solvent B: deionized water, 1 mL/min gradient as follows: […]
Into a 4-mL glass vial with stir bar was added 1 mg protease (Table 6) in 0.050 mL of 50 mM sodium phosphate buffer (pH 6.5), 0.900 mL of an aqueous mixture containing triacetin (278 mM) in 50 mM phosphate buffer (pH 6.5), and 0.052 mL 30% hydrogen peroxide (500 mM final concentration). After stirring for 5 or 30 minutes at 22° C., a 0.250 mL sample was filtered using a 30,000 NMWL filter (Millipore UltraFree-MC) centrifuged for 2 minute at 12,000 RPM. A portion of the filtered reaction samples was diluted 1:10 with dd water and analyzed for hydrogen peroxide, and the remaining portion of the sample was directly analyzed for peracid using the HPLC assay method (Table 9).

[10] = Protease-catalyzed perhydrolysis of acetamide at pH 4.0 (Example 6); format: biochemical; details: pH 4.0, 500 mM H2O2, 1 mg protease
Procedure: as §1, with “sodium acetate/acetic acid” for “potassium phosphate”, “4.0),” for “6.5),”, “4.0)” for “6.5)”, “7).” for “10).”

## acetyl cholinesterase
[1]; 5 min
  propyl acetate (200 mM), H2O2 (200 mM) peracetic acid (ppm), 5 min: 0 ppm
[1]; 30 min
  propyl acetate (200 mM), H2O2 (200 mM) peracetic acid (ppm), 30 min: 0 ppm

## Neutrase ®: Novozymes; a neutral protease from Bacillus amyloliquefaciens
[2]; pH 4.0, 5 min
  peracetic acid (ppm), 5 min: 50 ppm
[2]; pH 4.0, 30 min
  peracetic acid (ppm), 30 min: 110 ppm
[2]; pH 6.5, 5 min
  peracetic acid (ppm), 5 min: 50 ppm
[2]; pH 6.5, 30 min
  peracetic acid (ppm), 30 min: 110 ppm
[3]; pH 4.0
  peracetic acid (ppm), 5 min: 0 ppm
  peracetic acid (ppm), 30 min: 0 ppm
[3]; pH 6.5
  peracetic acid (ppm), 5 min: 110 ppm
  peracetic acid (ppm), 30 min: 300 ppm

## OO [Hydrogen Peroxide, hydrogen peroxide]
E. coli ATCC 11229; Escherichia coli, ATCC11229, 10 min, E. coli ATCC 11229, 1.35×10^6 CFU/mL, 10 minutes at room temperature, XTT, six-log kill, read-out: Minimum Biocidal Concentration (MBC)
  MBC: > 170 µg/mL
E. coli ATCC 11229; H2O2 42.5 ppm
  blank-corrected mean OD: 1.710
  mean replicate OD (450 nm): 2.134
  replicate OD (450 nm): 2.007 and 2.027 and 1.971 and 2.117 and 2.666 and 2.170 and 2.082 and 2.034
E. coli ATCC 11229; H2O2 85.1 ppm
  blank-corrected mean OD: 1.466
  mean replicate OD (450 nm): 1.890
  replicate OD (450 nm): 1.889 and 1.815 and 1.795 and 1.962 and 2.153 and 1.880 and 1.793 and 1.834
E. coli ATCC 11229; H2O2 170.1 ppm
  blank-corrected mean OD: 0.005
  mean replicate OD (450 nm): 0.4295
  replicate OD (450 nm): 0.435 and 0.402 and 0.424 and 0.462 and 0.414 and 0.401 and 0.422 and 0.470
E. coli ATCC 11229; H2O2 340.2 ppm
  blank-corrected mean OD: 0.009
  mean replicate OD (450 nm): 0.433
  replicate OD (450 nm): 0.423 and 0.439 and 0.425 and 0.432 and 0.452 and 0.440 and 0.428 and 0.424
E. coli ATCC 11229; H2O2 680.5 ppm
  blank-corrected mean OD: 0.016
  mean replicate OD (450 nm): 0.440
  replicate OD (450 nm): 0.433 and 0.440 and 0.426 and 0.430 and 0.453 and 0.456 and 0.436 and 0.446
[4]; 0.1 M hydrogen peroxide, in less than 6 minutes
  inactivation of the protease subtilisin: > 80%
[4]; 1.0 M hydrogen peroxide, in less than 4 minutes
  inactivation of the protease subtilisin: > 80%

## Pepsin
[5]; 5 min
  acetamide (250 mM) peracetic acid (ppm), 5 min: 81 ppm
[5]; 30 min
  acetamide (250 mM) peracetic acid (ppm), 30 min: 67 ppm
[6]; 5 min
  diacetamide (250 mM) peracetic acid (ppm), 5 min: 97 ppm
[6]; 30 min
  diacetamide (250 mM) peracetic acid (ppm), 30 min: 120 ppm
[7]; 5 min
  diacetamide (250 mM) peracetic acid (ppm), 5 min: 259 ppm
[7]; 30 min
  diacetamide (250 mM) peracetic acid (ppm), 30 min: 198 ppm
[8]; 5 min
  triacetin (250 mM) peracetic acid (ppm), 5 min: 65 ppm
[8]; 30 min
  triacetin (250 mM) peracetic acid (ppm), 30 min: 44 ppm
[9]; 5 min
  triacetin (250 mM) peracetic acid (ppm), 5 min: 111 ppm
[9]; 30 min
  triacetin (250 mM) peracetic acid (ppm), 30 min: 163 ppm
[10]; 5 min
  acetamide (250 mM) peracetic acid (ppm), 5 min: 45 ppm
[10]; 30 min
  acetamide (250 mM) peracetic acid (ppm), 30 min: 65 ppm
